From ChEMBL document CHEMBL1201862, “PubChem BioAssay data set” (2004)
Where a name gives a salt, the structure may show the parent alone. One block for each molecule: values may come before it. The source made the active and inactive calls.

Assays:
Fatty acid synthase [1] = target: T1, Fatty acid synthase (Homo sapiens, UniProt P49327); experiment: FAS thioesterase domain inhibitors, dose response, biochemical, kinetic fluorescence intensity (AID 624326); format: functional;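 further: rate of fluorescence rise from hydrolysis of a fluorogenic O-methyl fluorescein ester substrate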
T1 sequence (P49327 whole entry, the tested form may be a part): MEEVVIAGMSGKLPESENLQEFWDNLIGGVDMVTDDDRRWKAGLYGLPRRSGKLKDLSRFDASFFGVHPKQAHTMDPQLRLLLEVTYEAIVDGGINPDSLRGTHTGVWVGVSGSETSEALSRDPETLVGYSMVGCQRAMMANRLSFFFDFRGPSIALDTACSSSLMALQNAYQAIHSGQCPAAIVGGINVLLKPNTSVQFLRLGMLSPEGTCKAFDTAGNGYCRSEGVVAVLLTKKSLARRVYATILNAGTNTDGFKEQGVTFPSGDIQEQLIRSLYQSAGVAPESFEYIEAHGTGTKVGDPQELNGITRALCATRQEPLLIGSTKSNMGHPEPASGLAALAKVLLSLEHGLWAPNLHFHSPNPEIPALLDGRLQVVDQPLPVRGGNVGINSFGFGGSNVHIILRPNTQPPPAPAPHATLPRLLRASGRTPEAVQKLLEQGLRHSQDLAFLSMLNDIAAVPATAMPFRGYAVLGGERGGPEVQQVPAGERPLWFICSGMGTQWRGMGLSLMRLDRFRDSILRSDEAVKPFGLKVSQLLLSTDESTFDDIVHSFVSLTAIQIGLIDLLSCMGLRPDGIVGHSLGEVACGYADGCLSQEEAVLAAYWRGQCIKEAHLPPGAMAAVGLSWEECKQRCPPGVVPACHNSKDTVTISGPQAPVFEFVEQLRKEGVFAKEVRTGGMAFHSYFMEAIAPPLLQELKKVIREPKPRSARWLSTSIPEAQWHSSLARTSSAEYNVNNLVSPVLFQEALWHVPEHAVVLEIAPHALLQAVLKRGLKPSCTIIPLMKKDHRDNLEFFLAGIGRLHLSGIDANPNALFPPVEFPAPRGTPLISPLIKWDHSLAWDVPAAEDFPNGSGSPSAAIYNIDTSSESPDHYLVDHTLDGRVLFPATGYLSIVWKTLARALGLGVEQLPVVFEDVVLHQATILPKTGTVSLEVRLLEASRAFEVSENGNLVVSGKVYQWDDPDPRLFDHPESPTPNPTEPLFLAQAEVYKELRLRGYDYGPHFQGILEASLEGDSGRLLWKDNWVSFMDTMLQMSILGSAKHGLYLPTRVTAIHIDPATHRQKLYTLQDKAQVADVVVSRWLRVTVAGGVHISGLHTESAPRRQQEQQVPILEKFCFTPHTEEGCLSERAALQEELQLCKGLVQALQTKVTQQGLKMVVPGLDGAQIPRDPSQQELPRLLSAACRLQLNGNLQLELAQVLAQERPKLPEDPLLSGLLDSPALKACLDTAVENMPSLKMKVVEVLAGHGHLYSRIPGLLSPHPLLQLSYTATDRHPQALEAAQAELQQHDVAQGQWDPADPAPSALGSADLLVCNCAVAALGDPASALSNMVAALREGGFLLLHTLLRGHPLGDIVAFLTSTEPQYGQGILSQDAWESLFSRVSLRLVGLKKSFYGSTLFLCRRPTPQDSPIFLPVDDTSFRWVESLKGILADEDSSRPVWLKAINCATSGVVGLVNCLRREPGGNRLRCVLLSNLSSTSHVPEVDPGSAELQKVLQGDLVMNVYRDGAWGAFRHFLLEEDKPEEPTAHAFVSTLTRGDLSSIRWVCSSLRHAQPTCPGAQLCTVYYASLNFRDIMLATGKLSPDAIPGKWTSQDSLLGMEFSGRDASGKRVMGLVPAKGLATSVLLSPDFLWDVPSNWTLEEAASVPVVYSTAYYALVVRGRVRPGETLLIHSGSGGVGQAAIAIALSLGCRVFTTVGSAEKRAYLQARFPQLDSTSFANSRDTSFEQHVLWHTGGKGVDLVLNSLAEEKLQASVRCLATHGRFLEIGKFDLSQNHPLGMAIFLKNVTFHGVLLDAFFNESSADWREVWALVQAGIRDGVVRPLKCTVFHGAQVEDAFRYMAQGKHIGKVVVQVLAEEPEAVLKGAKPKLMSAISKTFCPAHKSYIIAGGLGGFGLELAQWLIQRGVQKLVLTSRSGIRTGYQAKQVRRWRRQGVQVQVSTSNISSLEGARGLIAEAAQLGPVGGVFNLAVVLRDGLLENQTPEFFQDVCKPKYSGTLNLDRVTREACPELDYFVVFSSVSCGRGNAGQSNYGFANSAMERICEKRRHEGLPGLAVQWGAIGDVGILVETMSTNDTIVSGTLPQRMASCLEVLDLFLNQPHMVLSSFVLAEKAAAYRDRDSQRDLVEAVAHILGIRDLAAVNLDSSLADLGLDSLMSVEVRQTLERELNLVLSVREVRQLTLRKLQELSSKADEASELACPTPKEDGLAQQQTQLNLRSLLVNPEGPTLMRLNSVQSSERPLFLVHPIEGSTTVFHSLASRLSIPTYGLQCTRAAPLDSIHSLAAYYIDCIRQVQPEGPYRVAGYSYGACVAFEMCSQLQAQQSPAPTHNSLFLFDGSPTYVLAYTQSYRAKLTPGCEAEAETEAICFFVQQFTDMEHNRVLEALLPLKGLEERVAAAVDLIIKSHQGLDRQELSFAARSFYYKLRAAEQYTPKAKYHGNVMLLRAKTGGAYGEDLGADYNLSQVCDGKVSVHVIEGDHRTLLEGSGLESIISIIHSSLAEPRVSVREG

Fatty acid synthase [2] = target: T1, Fatty acid synthase; experiment: FAS thioesterase domain inhibitors, dose response, biochemical, endpoint fluorescence intensity, uHTS hits (AID 624327); format: functional;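 further: fluorescence from hydrolysis of an O-methyl fluorescein acyl ester substrate by the enzyme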
Paired box protein Pax-8 = Paired box protein Pax-8 (Homo sapiens, UniProt Q06710); experiment: inhibitors of PAX8-driven TPO luciferase reporter, dose response, RMG-I cells, cherry-pick (AID 687027); format: functional, cell-based;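 further: luciferase reporter driven by Pax8 target thyroperoxidase promoter measured by SteadyGlo luminescence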
Sequence of Paired box protein Pax-8 (Q06710 whole entry): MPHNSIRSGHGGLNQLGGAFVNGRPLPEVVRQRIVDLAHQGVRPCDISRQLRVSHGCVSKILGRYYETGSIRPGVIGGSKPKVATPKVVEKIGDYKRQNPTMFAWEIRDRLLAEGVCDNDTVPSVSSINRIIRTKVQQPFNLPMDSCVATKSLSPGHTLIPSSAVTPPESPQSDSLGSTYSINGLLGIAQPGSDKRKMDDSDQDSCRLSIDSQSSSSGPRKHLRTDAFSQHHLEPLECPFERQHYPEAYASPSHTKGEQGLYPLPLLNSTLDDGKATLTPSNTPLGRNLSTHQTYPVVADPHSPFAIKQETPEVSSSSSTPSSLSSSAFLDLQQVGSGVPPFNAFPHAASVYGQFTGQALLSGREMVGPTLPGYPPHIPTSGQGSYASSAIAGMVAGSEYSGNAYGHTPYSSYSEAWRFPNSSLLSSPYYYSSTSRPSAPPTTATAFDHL

[3] = A2780 ovarian cancer cell cytotoxicity, dose response, cytotoxicity control, plate reader, dry powder samples (AID 743046); format: functional, cell-based
[4] = ADAM10 protease inhibitors, dose response, selectivity assay for ADAM17 exosite inhibitor project, biochemical, FRET peptide substrate, recombinant human ADAM10 (AID 743259);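 further: ADAM10 enzyme cleaving a FRET peptide substrate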
[5] = target: Disintegrin and metalloproteinase domain-containing protein 17 (Homo sapiens, UniProt P78536); experiment: exosite inhibitors of ADAM17, dose response, biochemical (AID 743260)
Sequence of Disintegrin and metalloproteinase domain-containing protein 17 (P78536 whole entry, the tested form may be a part): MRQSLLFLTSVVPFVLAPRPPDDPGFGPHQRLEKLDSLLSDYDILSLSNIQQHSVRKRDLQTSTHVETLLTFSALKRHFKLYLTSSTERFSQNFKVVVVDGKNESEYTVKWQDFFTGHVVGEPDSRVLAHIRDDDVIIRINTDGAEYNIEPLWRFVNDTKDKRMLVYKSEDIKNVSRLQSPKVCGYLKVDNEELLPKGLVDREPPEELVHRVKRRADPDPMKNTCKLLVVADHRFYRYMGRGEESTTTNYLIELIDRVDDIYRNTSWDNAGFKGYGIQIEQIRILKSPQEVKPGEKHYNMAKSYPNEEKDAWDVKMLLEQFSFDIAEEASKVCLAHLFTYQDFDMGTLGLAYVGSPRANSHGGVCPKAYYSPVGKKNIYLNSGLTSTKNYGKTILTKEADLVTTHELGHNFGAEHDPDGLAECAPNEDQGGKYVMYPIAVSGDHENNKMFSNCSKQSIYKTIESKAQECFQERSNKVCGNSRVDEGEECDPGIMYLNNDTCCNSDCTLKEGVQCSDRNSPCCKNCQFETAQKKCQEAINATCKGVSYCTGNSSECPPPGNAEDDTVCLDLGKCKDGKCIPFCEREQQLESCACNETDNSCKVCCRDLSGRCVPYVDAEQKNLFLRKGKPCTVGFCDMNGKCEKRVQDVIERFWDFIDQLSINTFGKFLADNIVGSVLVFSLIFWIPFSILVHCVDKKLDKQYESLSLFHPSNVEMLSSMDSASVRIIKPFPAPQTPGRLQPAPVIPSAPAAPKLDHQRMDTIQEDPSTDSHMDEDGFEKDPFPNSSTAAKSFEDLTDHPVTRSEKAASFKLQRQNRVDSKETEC

[6] = T. cruzi growth inhibition in host cells, dose response, cell-based, plate reader, dry powder, set 2 (AID 652275); format: functional
[7] = Luminescence Cell-Based Dose Retest to Confirm Inhibitors of Cancer Stem Cells. [Related pubchem assays (depositor defined):AID2717, AID2721]; format: functional; conditions: Homo sapiens
[8] = target: T2, DNA repair and recombination protein RAD54-like (Homo sapiens, UniProt Q92698); experiment: inhibitors of human RAD54 branch migration, confirmation, biochemical, fluorescence, cherry-picked samples, dose series (AID 651657); format: functional
T2 sequence (Q92698 whole entry): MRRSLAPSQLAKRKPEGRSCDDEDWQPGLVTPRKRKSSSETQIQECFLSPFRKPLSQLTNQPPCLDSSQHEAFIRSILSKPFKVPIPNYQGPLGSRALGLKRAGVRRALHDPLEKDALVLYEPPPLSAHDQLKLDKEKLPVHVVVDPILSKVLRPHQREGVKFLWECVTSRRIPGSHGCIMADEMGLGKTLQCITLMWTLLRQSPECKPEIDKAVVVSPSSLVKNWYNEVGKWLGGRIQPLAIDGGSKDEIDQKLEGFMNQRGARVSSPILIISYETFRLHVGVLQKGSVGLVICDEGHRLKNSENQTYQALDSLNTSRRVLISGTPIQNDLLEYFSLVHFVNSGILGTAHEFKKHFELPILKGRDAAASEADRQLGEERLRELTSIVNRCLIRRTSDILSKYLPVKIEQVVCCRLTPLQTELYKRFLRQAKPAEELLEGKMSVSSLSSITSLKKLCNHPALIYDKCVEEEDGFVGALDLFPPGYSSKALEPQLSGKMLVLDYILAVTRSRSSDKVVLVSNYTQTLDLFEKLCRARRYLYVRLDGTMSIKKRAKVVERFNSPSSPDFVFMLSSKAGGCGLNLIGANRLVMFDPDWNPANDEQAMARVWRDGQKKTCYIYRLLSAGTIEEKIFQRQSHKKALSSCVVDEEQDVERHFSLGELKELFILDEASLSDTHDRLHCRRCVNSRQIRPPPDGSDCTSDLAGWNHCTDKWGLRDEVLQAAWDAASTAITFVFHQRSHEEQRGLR

[9] = target: T3, DNA repair protein RAD52 homolog (Homo sapiens, UniProt P43351); format: functional, biochemical
T3 sequence (P43351 whole entry): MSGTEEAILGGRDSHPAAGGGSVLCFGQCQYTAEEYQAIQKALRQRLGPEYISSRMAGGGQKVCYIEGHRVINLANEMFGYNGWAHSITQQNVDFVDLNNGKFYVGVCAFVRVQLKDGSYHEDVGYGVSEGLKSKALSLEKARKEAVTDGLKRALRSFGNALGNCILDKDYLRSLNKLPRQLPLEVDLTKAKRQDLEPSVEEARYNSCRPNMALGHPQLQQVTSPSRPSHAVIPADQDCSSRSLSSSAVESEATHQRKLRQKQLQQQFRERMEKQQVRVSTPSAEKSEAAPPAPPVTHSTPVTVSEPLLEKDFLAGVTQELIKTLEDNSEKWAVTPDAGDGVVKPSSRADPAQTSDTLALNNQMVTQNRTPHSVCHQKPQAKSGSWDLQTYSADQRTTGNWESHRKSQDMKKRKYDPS

[10] = A549 cell cytotoxicity, dose response, cytotoxicity control, plate reader, cherry-pick, antagonist series (AID 743412); format: functional, cell-based
[11] = HEK293 cell cytotoxicity, dose response, cytotoxicity control, plate reader, cherry-picked samples (AID 743446); format: functional, cell-based
[12] = LGR2 antagonists, dose response, cell-based, HEK293, CRE-luciferase reporter, cherry pick, set 2 (AID 743343); format: functional;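 further: transfected cells were stimulated with diluted bursicon conditioned medium after compound addition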
[13] = HepG2 cell cytotoxicity, dose response, cytotoxicity control, plate reader, cherry-pick, antagonist series (AID 743416); format: functional, cell-based
[14] = inhibitors of PGC1a acetylation in cells, dose response, cell-based, cherry-picked samples (AID 720514); format: functional;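 further: potency may reflect raised or lowered acetylation signal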
[15] = target: T4, Ubiquitin-conjugating enzyme E2 N (Homo sapiens, UniProt P61088); format: functional;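 further: Dose-response confirmation in a TR-FRET assay detecting UBC13-driven polyubiquitin chain formation, inhibition measured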
T4 sequence (P61088 whole entry): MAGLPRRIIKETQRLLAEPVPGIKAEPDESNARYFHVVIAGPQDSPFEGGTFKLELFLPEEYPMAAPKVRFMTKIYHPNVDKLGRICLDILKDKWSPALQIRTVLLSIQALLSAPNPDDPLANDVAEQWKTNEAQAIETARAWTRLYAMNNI

[16] = MC4R antagonists, dose response, counter-screen for LGR2 antagonist project, cell-based, plate reader, cherry pick (AID 743444); format: functional

IC50 (Fatty acid synthase [1]): 9.95 µM (active)
IC50 (Fatty acid synthase [2]): 11.2 µM (active)
SMILES: COc1cccc(-c2cnc3c(NC=O)cc(-c4ccc(S(C)(=O)=O)cc4)cn23)c1

SMILES: C[C@H](CO)N1C[C@H](C)[C@@H](CN(C)Cc2ccc(Cl)c(Cl)c2)OCCCC[C@H](C)Oc2ccc(NS(=O)(=O)c3ccccc3)cc2C1=O
AC50 (Paired box protein Pax-8): 17.5 µM (active)
AC50 [3]: < 0.26 µM (active)

IC50 [5]: > 69.5 µM (inactive)
SMILES: O=C(CSc1nc2ccccc2o1)NN=C/C=C/c1ccccc1
IC50 [4]: > 69.5 µM (inactive)

SMILES: O=C(C1CCC1)N1CCCCN2[C@@H](CO)[C@H](c3ccc(-c4cccc(F)c4)cc3)[C@@H]2C1
AC50 [6]: 0.227 µM (active)

SMILES: Cc1ccccc1-n1c(SCC(=O)N/N=C/C=C/c2ccccc2[N+](=O)[O-])nc2ccccc2c1=O
IC50 [4]: 4.51 µM (active)
IC50 [5]: > 69.5 µM (inactive)
AC50 [7]: > 195 µM (inactive)

AC50 [8]: 28.1 µM (active)
AC50 [9]: 3.85 µM (active)
SMILES: Cc1cc(N2CCN(C)CC2)nc2ccc(NC(=S)NCCCN3CCc4ccccc4C3)cc12

SMILES: OC(c1cc(C(F)(F)F)nc2c(C(F)(F)F)cccc12)C1CCCCN1 (centres undefined) [MEFLOQUINE HYDROCHLORIDE]
AC50 [10]: 8.37 µM (active)
AC50 [11]: 5.19 µM (active)
AC50 [12]: 9.96 µM (active)
AC50 [13]: 11.6 µM (active)
AC50 [14]: 7.13 µM (active)
IC50 [15]: > 20 µM (inactive)
